Laboratory results published in patent publication US7615527B2, “Peptides which modulate blood coagulation and methods of use thereof” (Oregon Health & Science University, priority 2001, dated 2009).
Ends that are not written are not given here.

Experiments:
[1] = tested on: normal human reference plasma; assay: Activated partial thromboplastin time (aPTT) assay in human plasma; format: biochemical; conditions: 1 mM peptide; reference blood plasma; without peptide 29.0±0.1 seconds
Description: Activated Partial Thromboplastin Time (aPTT) Assay. This anti-coagulation assay was chosen for testing the γ′ peptides due to its sensitivity to heparin-like compounds, its ease of use, and the ability to automate the procedure. An MLA 1600 instrument (Organon Teknika) was used to quantitate the effect of the γ′ peptides on the aPTT, using the manufacturer's protocol. Briefly, 0-1 mM γ′ peptides or 0-10 units/ml unfractionated heparin was added to 50 μl of normal reference plasma (Ortho) and manually loaded into the MLA 1600. The MLA 1600 added SynthASil aPTT reagent (Ortho) to initiate clotting, and clot formation was monitored spectrophotometrically for 106 seconds. […] Prothrombin Time/International Normalized Ratio Assay. This clotting assay is less sensitive to heparin than the aPTT, and may be used to determine if a γ′ peptide is capable of prolonging the prothrombin time (PT) to the same extent as the 3 aPTT. One-stage PT assays may be performed using an MLA 1600 instrument according to the manufacturer's protocol. Briefly, 0-1 mM γ′ peptide or scrambled peptide or 0-10 units/ml unfractionated heparin may be added to 50 μl of normal reference plasma (Ortho) and manually loaded into the MLA 1600. The MLA 1600 may be used to add recombinant thromboplastin (Recombiplastin, Ortho) to initiate clotting, and clot formation monitored spectrophotometrically for 106 seconds. If a clot is not generated within 106 seconds, the MLA will automatically extend the observation time to 212 seconds.
An aPTT assay was performed using human plasma to determine the effect of γ′ peptide on the clotting time in this system. […] The MLA 1600 added SynthASil aPTT reagent (Ortho) to initiate clotting and clot formation was monitored spectrophotometrically for 106 seconds. […]
An aPTT assay was performed using human plasma to determine the effect of γ′ deletion peptides on the clotting time in this system. […] The MLA 1600 added SynthASil aPTT reagent (Ortho) to initiate clotting and clot formation was monitored spectrophotometrically for 106 seconds. […]

[2] = tested on: platelet aggregation in platelet-rich plasma; assay: Platelet aggregometry assay (PAP-4) in platelet-rich plasma; format: cell-based; conditions: for Platelet aggregation Slope, ADP / Platelet aggregation Extent, ADP: 2 μM ADP; for Platelet aggregation Slope, ADP: 0 mM: 47; for Platelet aggregation Extent, ADP / Platelet aggregation Extent, Epinephrine: 0 mM: 83%; for Platelet aggregation Slope, Epinephrine / Platelet aggregation Extent, Epinephrine: 10 μg/ml epinephrine; for Platelet aggregation Slope, Epinephrine: 0 mM: 24; for Platelet aggregation Slope, Arachidonic Acid / Platelet aggregation Extent, Arachidonic Acid: 0.5 mg/ml arachidonic acid; for Platelet aggregation Slope, Arachidonic Acid: 0 mM: 32; for Platelet aggregation Extent, Arachidonic Acid: 0 mM: 82%; for Platelet aggregation Extent, Thrombin / Platelet aggregation Slope, Thrombin: 0.2 units/ml thrombin; for Platelet aggregation Extent, Thrombin: 0 mM: 97%; for Platelet aggregation Slope, Thrombin: 0 mM: 113
Description: Reptilase Time Assays. The reptilase time may be used as a control assay to examine the effects of a γ′ peptide. This assay is insensitive to thrombin inhibitors, since reptilase is used to clot fibrinogen rather than thrombin. An LA STA instrument (Diagnostica Stago) may be used to quantitate the effect of the γ′ peptide on the RVV, using the manufacturer's protocol. Briefly, 0-1 mM γ′ peptide or scrambled peptide or 0-10 units/ml unfractionated heparin may be added to 1 ml of normal reference plasma (DVVtroll) and loaded into the LA STA. The LA STA may be used to add Reptilase ST reagent (American Diagnostica) to initiate clotting, and clot formation monitored spectrophotometrically for 65 seconds. […] Platelet Aggregometzy Assays. This assay may be used to test the effects of a γ′ peptide on platelet aggregation in platelet-rich plasma. The activity of a γ′ peptide may be assayed in the presence or absence of epinephrine, ADP, collagen, ristocetin, arachidonic acid, and thrombin. A PAP-4 platelet aggregometer (Bio/Data) was used to quantitate the effect of the γ′ peptide on platelet aggregation, using the manufacturer's protocol. […] Blood was centrifuged for 10 minutes at 1,000×g, to isolate the supernatant of platelet-rich plasma. All experiments were performed within 2 hours of the blood draw. 0-1 mM γ′ peptide or scrambled peptide or 0-10 units/ml unfractionated heparin was added to 450 μl of platelet-rich plasma and loaded into siliconized cuvettes. 50 μl of agonist was added and the absorbance monitored for 6 minutes. The agonists used were 10 μg/ml epinephrine (American Reagent Laboratories), 2 μM ADP (Sigma), 0.5 mg/ml arachidonic acid (Bio/Data), or 0.2 units/ml thrombin. The presence or absence of a bi-phasic response may be determined, which is of particular significance in the presence of epinephrine, ADP, and ristocetin. The length of the lag phase may be determined, which is especially relevant in the presence of collagen. PFA-100 Assays. The effect of the γ′ peptide on platelet function may also be assessed using a Platelet Function Analyzer (PFA-100™, Dade Behring). The PFA-100 instrument measures the closure time of a capillary tube containing whole blood. This assay may be used to advantage to examine the effect of γ′ peptide on platelet function in whole blood in the presence of either of the platelet agonists epinephrine or ADP. Briefly, 0-1 mM γ′ peptide or scrambled peptide or 0-10 units/ml unfractionated heparin may be added to 800 μl of normal reference whole blood from an established control group and loaded into the PFA-100 to measure the closure time. Platelet function may be tested using both a collagen/epinephrine cartridge and a collagen/ADP cartridge
Platelet aggregation assays were performed as described hereinabove. A PAP-4 platelet aggregometer (Bio/Data) was used to quantitate the effect of the γ′ peptide on platelet aggregation, using the manufacturer's protocol.
Blood was centrifuged for 10 minutes at 1,000×g, and the supernatant of platelet-rich plasma was separated. 0-1 mM γ′ peptide was added to 450 μl of platelet-rich plasma and loaded into siliconized cuvettes. 50 μl of agonist was added, and the absorbance was monitored for 6 minutes. The agonists used were 2 μM ADP (Sigma), 0.5 mg/ml arachidonic acid (Bio/Data), 10 μg/ml epinephrine (American Reagent Laboratories), or 0.2 units/ml thrombin.

PEHPAETEY(*)DSLY(*)PEDDL (PEHPAETEYDSLYPEDDL; not fully specified (residues 9, 13); printed as PEHPAETEY(*)DSLY(*)PEDDL) [γ′ 410-427]
Blood clotting time, activated partial thromboplastin assay [1]: 55.1 ± 0.0 s | Platelet aggregation Slope, ADP ([2]; 0.125 mM peptide): 43 | Platelet aggregation Extent, ADP ([2]; 0.125 mM peptide): 87% | Platelet aggregation Slope, ADP ([2]; 0.25 mM peptide): 40 | Platelet aggregation Extent, ADP ([2]; 0.25 mM peptide): 86% | Platelet aggregation Slope, ADP ([2]; 0.5 mM peptide): 39 | Platelet aggregation Extent, ADP ([2]; 0.5 mM peptide): 82% | Platelet aggregation Slope, ADP ([2]; 1.0 mM peptide): 32 | Platelet aggregation Extent, ADP ([2]; 1.0 mM peptide): 58% | Platelet aggregation Slope, Epinephrine ([2]; 0.125 mM peptide): 22 | Platelet aggregation Extent, Epinephrine ([2]; 0.125 mM peptide): 84% | Platelet aggregation Slope, Epinephrine ([2]; 0.25 mM peptide): 20 | Platelet aggregation Extent, Epinephrine ([2]; 0.25 mM peptide): 82% | Platelet aggregation Slope, Epinephrine ([2]; 0.5 mM peptide): 16 | Platelet aggregation Extent, Epinephrine ([2]; 0.5 mM peptide): 78% | Platelet aggregation Slope, Epinephrine ([2]; 1.0 mM peptide): 9 | Platelet aggregation Extent, Epinephrine ([2]; 1.0 mM peptide): 43% | Platelet aggregation Slope, Arachidonic Acid ([2]; 0.125 mM peptide): 33 | Platelet aggregation Extent, Arachidonic Acid ([2]; 0.125 mM peptide): 81% | Platelet aggregation Slope, Arachidonic Acid ([2]; 0.25 mM peptide): 35 | Platelet aggregation Extent, Arachidonic Acid ([2]; 0.25 mM peptide): 82% | Platelet aggregation Slope, Arachidonic Acid ([2]; 0.5 mM peptide): 31 | Platelet aggregation Extent, Arachidonic Acid ([2]; 0.5 mM peptide): 83% | Platelet aggregation Slope, Arachidonic Acid ([2]; 1.0 mM peptide): 34 | Platelet aggregation Extent, Arachidonic Acid ([2]; 1.0 mM peptide): 85% | Platelet aggregation Extent, Thrombin ([2]; 0.125 mM peptide): 68% | Platelet aggregation Slope, Thrombin ([2]; 0.125 mM peptide): 70 | Platelet aggregation Extent, Thrombin ([2]; 0.25 mM peptide): 64% | Platelet aggregation Slope, Thrombin ([2]; 0.25 mM peptide): 39 | Platelet aggregation Extent, Thrombin ([2]; 0.5 mM peptide): 93% | Platelet aggregation Slope, Thrombin ([2]; 0.5 mM peptide): 21 | Platelet aggregation Extent, Thrombin ([2]; 1.0 mM peptide): 33% | Platelet aggregation Slope, Thrombin ([2]; 1.0 mM peptide): 10
